Counter-ions that a name gives are not always drawn.
Experiments:
[1] = tested on: pseudotyped SARS CoV-2 particles; experiment: microbe, parasite or virus in culture; type: cell-based; details: Severe acute respiratory syndrome coronavirus 2; read-out: inhibition of pseudotyped SARS CoV-2 virus entry
[2] = tested on: R18 labelled PR8 WT virus; experiment: Influenza virus membrane fusion assay (R18 fluorescence); type: cell-based, Influenza A virus; details: 90 min
[3] = tested on: SARS-CoV-2; experiment: SARS CoV-2 infection studies in the hamster model; type: in vivo, Syrian golden hamsters; details: CQ dosed therapeutically

CN(C)C(=O)COC(=O)Cc1ccc(OC(=O)c2ccc(NC(=N)N)cc2)cc1 [CM, Camostat mesylate, reference compound]
inhibition at 500 µM [1]: 60%

Cl.N [NH4Cl, ammonium chloride]
virus-entry associated increase in fluorescence intensity ([2]; 10 μM NH4Cl): able to inhibit

CCN(CC)CCCC(C)Nc1ccnc2cc(Cl)ccc12 (centres unmarked) [CQ, Chloroquine, reference compound]
virus-entry associated increase in fluorescence intensity ([2]; 10 μM CQ): able to inhibit | lung viral loads reduced by [3]: ~1 log | inhibition at 10 µM [1]: 90%
